Data as given in PubChem BioAssay (NCI).
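Each compound was tested at five concentrations against cells in 96-well plates for 48 hours. TGI marks complete inhibition of growth.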

Assays:
Assay in all cases: NCI tumour cell line growth inhibition, 48 h
UO-31 renal = test system: UO-31 renal
EKVX NSCLC = test system: EKVX NSCLC
COLO 205 colon = test system: COLO 205 colon
A498 renal = test system: A498 renal
SW-620 colon = test system: SW-620 colon
MDA-MB-435 = test system: MDA-MB-435
LOX IMVI melanoma = test system: LOX IMVI melanoma
OVCAR-3 ovarian = test system: OVCAR-3 ovarian
KM12 colon = test system: KM12 colon
NCI/ADR-RES ovarian = test system: NCI/ADR-RES ovarian
RXF 393 renal = test system: RXF 393 renal
SR leukemia = test system: SR leukemia

Row | Structure (SMILES) | TGI (UO-31 renal) | TGI (EKVX NSCLC) | TGI (COLO 205 colon) | TGI (A498 renal) | TGI (SW-620 colon) | TGI (MDA-MB-435) | TGI (LOX IMVI melanoma) | TGI (OVCAR-3 ovarian) | TGI (KM12 colon) | TGI (NCI/ADR-RES ovarian) | TGI (RXF 393 renal) | TGI (SR leukemia)
1 | O=c1oc2ccccc2c(O)c1C(c1ccco1)c1c(O)c2ccccc2oc1=O | 43.9 µM | > 100 µM | 48.9 µM | > 100 µM | 49.8 µM | 85.4 µM | 61.1 µM | > 100 µM | > 100 µM | > 100 µM |  | 
2 | CCCCc1c2c(nc3c1CCCC3O)/C(=C/c1ccccc1)CCC2 (configuration not stated) | > 100 µM | 97.4 µM | 33.4 µM | > 100 µM | 64.2 µM |  | 34.5 µM | 35.9 µM | 36.8 µM |  | 71.7 µM | 42 µM
3 | CCOC(=O)CCC(NC(=O)c1ccc(Oc2nc3ccc(C(F)(F)F)cc3nc2-c2ccccc2)cc1)C(=O)OCC (configuration not stated) | > 100 µM | 64 µM | > 100 µM | > 31.6 µM | > 100 µM | > 100 µM | > 100 µM | > 100 µM | > 100 µM | > 100 µM | 55.4 µM | > 100 µM
4 | COc1cccc(NC(=S)Nn2c(C)nc3ccccc3c2=O)c1 | > 100 µM |  | > 100 µM | > 100 µM | > 100 µM |  | > 100 µM |  | > 100 µM |  | > 100 µM | > 100 µM
5 | CCOC(=O)c1c(C)c2c(n1C)CCc1cn[nH]c1-2 | > 100 µM | > 100 µM | > 100 µM | > 100 µM | > 100 µM |  | > 100 µM | > 100 µM | > 100 µM | > 100 µM | > 100 µM | 
6 | COC(OC)c1cccc2c1C(=O)CCC1(O)c3ccccc3C1C2 (configuration not stated) | > 100 µM | > 100 µM | > 100 µM |  | > 100 µM |  | > 100 µM | > 100 µM | > 100 µM |  |  | > 100 µM
7 | COc1ccc(C2C3C(=O)C=CC(=O)C3[C@@H]2C)cc1OC (some centres not stated) | > 100 µM | > 100 µM | > 100 µM | > 100 µM | > 100 µM |  | > 100 µM | > 100 µM | > 100 µM |  | > 100 µM | 
8 | CCCC/C=C/C1Cc2ccccc2CN1S(=O)(=O)c1ccc(C)cc1 (configuration not stated) | 18.7 µM | > 100 µM | 22 µM |  | 24.1 µM |  | 22.3 µM | 24.1 µM | 22.1 µM |  | 23.9 µM | 41.8 µM
9 | CC1(C)N=C(C(N)=O)c2ncn(-c3ccccc3)c2N1 |  | > 100 µM | > 100 µM | > 100 µM | > 100 µM | > 100 µM | > 100 µM | > 100 µM | > 100 µM | > 100 µM | > 100 µM | > 100 µM
10 | COc1cc(C2C(Cl)C(=O)N2NC(=O)c2ccccc2O)ccc1O (configuration not stated) | > 100 µM |  |  | > 100 µM |  |  | > 100 µM | > 100 µM | > 100 µM |  | > 100 µM | 
11 | CC(=O)O/N=C/c1ncccc1OC(C)=O | > 100 µM | > 100 µM | > 100 µM | > 100 µM | > 100 µM |  | > 100 µM | > 100 µM | > 100 µM |  | > 100 µM | > 100 µM
12 | CCCn1c(SCC)c2ccccc2c1-c1nc(F)nc(F)n1 | > 100 µM | > 100 µM | > 100 µM | > 100 µM | > 100 µM |  | > 100 µM | > 100 µM | > 100 µM |  | > 100 µM | > 100 µM
13 | COC(=O)C1=C(C(=O)OC)C2(OC(C)=O)c3ccccc3-c3ccccc3C12 (configuration not stated) | 8.97 µM | 24.1 µM | 3.68 µM | 32 µM | 3.12 µM |  | 9.51 µM | 9.94 µM | 26.8 µM |  | 9.17 µM | 16.5 µM
14 | O=c1[nH]c(Nc2cccc(C(F)(F)F)c2)nc2nc[nH]c12 |  | > 100 µM | > 100 µM |  | > 100 µM | > 100 µM | > 100 µM | > 100 µM | > 100 µM | > 100 µM | > 100 µM | > 100 µM
15 | COC1=CC(=O)[C@H]2[C@H](C)C(c3ccccc3)[C@@]2(C)C1=O (some centres not stated) | > 100 µM | > 100 µM | > 100 µM | > 100 µM | > 100 µM |  | > 100 µM | > 100 µM | > 100 µM |  | > 100 µM | > 100 µM
16 | COc1cc(-c2oc3c(OC)c(O)c(OC)c(O)c3c(=O)c2OC)cc(O)c1OC | > 100 µM | > 100 µM | > 100 µM | 75.4 µM | > 100 µM | 77.6 µM | > 100 µM | 63.3 µM | > 100 µM | 52.7 µM | 79.4 µM | 
17 | N#Cc1c(-c2ccco2)cc(-c2ccc(NCc3nc4ccccc4[nH]3)cc2)nc1N | 58.7 µM |  | 47.9 µM | > 100 µM | > 100 µM |  | 32.7 µM | 41.8 µM | 38 µM |  | 68.5 µM | 
18 | O=C(/C=C/c1ccc(Cl)cc1)Oc1ccc(/C=C2\CCCCC2=O)cc1 | > 100 µM | > 100 µM | > 100 µM | > 100 µM | > 100 µM | > 100 µM | > 100 µM | > 100 µM | > 100 µM |  |  | > 100 µM
